Test results from patent publication US9993482B2, “Pharmaceutical combination comprising a class III receptor tyrosine kinase inhibitor and the alkylating histone-deacetylase inhibitor fusion molecule EDO-S101 together with its use in the treatment of cancer” (priority 2014, dated 2018).
pIC50: −log10 of the molar value. Where two headings read alike, the source gives them in different places.

Tests used:
[1] = test system: acute myeloid leukemia cell line MV-4-11; assay: MV-4-11 cell survival, CellTiter-Glo, single drug testing; assay type: cell-based; details: Homo sapiens, MV4-11, 72 h
Experimental: Culture media was purchased from GIBCO, USA.
(§1) Equipment used was the EnVision Multi Label Reader, PerkinElmer (USA). CO2 Water Jacketed Incubator, Therma (USA). Reverse microscope, Chongguang XDS-1B, Chongqing Guangdian Corp. (Chongqing, P.R.China).
(§2) The cells were harvested respectively during the logarithmic growth period and counted with a hemocytometer.
(§3) For single drug testing, the cell concentrations were adjusted to 4.44×10^4 cells/ml with the medium supplemented with 10% FBS. 90 μl cell suspensions were added to 96-well plates, such that the final cell density was 4×10^3 cells/well. The appropriate cell density was determined and adjusted according to the results of our first test.
The next day, 10 μl (10×) of drug solution was prepared and dispensed in each well (triplicate for each drug concentration). […] The contents were mixed for 2 minutes on an orbital shaker to induce cell lysis. The plate was allowed to incubate at room temperature for 10 minutes to stabilize the luminescent signal. Finally, the luminescence was recorded using an EnVision Multi Label Reader.
In order to calculate IC50, a dose-responsive curve was fitted using nonlinear regression model with a sigmoidal dose response. The formula of surviving rate is shown below, and the IC50 was automatically produced by GraphPad Prism 5.0.

[2] = test system: acute myeloid leukemia cell line MV-4-11; assay: MV-4-11 cell survival, CellTiter-Glo, two drug combination testing (CalcuSyn); assay type: cell-based; details: MV-4-11, 72 h, combination ratio 1:0.00120494
Experimental: The acute myeloid leukemia cell line MV-4-11 (obtained from the ATCC) was cultured in media supplemented with 10% fetal bovine serum (FBS) at a temperature of 37° C., 5% CO2 and 95% humidity. Culture media was purchased from GIBCO, USA. The cells were plated out in 96-Well Flat Clear Bottom Black Polystyrene TC-Treated Microplates (Cat#3603, Corning®).
as §1
(§4) The cells were harvested respectively during the logarithmic growth period and counted with a hemocytometer. The cell viability is over 98% by trypan blue exclusion.
(§5) For two drug combination testing, the cell concentrations were adjusted to 5.00×10^4/ml with the medium supplemented with 10% FBS. 80 μl cell suspensions were added to 96-well plates, such that the final cell densities were 4×10^3 cells/well. The appropriate cell density was determined and adjusted according to the results of our first test.
The next day, 10 μl (10×) of each drug solution was prepared and dispense in each well simultaneously (triplicate for each concentration). After 72 h incubation, 100 μL […]-GLO® Reagent was added to each well. The contents were mixed for 2 minutes on an orbital shaker to induce cell lysis. The plate was allowed to incubate at room temperature for 10 minutes to stabilize luminescent signal. Then the luminescence was recorded using EnVision Multi Label Reader.
In order to calculate IC50, a dose-responsive curve was fitted using nonlinear regression model with a sigmoidal dose response. The formula of surviving rate is shown below, and the IC50 was automatically produced by GraphPad Prism 5.0. The surviving rate (%)=(LumTest article−LUMMedium control)/(LUMNone treated−LUMMedium control)×100%.
Compound interactions were calculated by multiple drug effect analysis and performed by the median equation principle with CalcuSyn software from the mean affected fraction at each drug ratio concentration of each drug according to the methodology described by Chou and Talalay (Chou et al., Adv. Enzyme Regul., 22, 27-55 (1984)), that calculates a combination index (CI) with the following interpretation: • CI>1: antagonist effect, CI=1: additive effect and CI<1 synergistic effect.
(§6) The CI was calculated from the mean affected fraction at each drug ratio concentration of each drug.

[3] = test system: acute myeloid leukemia cell line MOLM-13; assay: MOLM-13 cell survival, CellTiter-Glo, single drug testing; assay type: cell-based; details: Homo sapiens, MOLM-13, 72 h
Experimental: (§7) The acute myeloid leukemia cell line MOLM-13 (obtained from the ATCC) was cultured in media supplemented with 10% FBS at a temperature of 37° C., 5% CO2 and 95% humidity. Culture media was purchased from GIBCO, USA. The cells were plated out in 96-Well Flat Clear Bottom Black Polystyrene […] Microplates (Cat#3603, Corning®).
as §1, §2, §3
The next day, 10 μl (10×) of drug solution was prepared and dispensed in each well (triplicate for each drug concentration). After 72 h incubation, 100 μl CellTiter-Glow Reagent was added to each well. The contents were mixed for 2 minutes on an orbital shaker to induce cell lysis. The plate was allowed to incubate at room temperature for 10 minutes to stabilize the luminescent signal. Finally, the luminescence was recorded using an EnVision Multi Label Reader.
(§8) In order to calculate IC50, a dose-responsive curve was fitted using nonlinear regression model with a sigmoidal dose response. The formula of surviving rate is shown below, and the IC50 was automatically produced by GraphPad Prism 5.0. The surviving rate (%)=(LumTest article−LUMMedium control)/(LumNone treated−LUMMedium control)×100%.

[4] = test system: acute myeloid leukemia cell line MOLM-13; assay: MOLM-13 cell survival, CellTiter-Glo, two drug combination testing (CalcuSyn); assay type: cell-based; details: MOLM-13, 72 h, combination ratio 1:0.00264302
Experimental: as §7, §1, §4, §5
The next day, 10 μl (10×) of each drug solution was prepared and dispense in each well simultaneously (triplicate for each concentration). After 72 h incubation, 100 μl CellTiter-Glo® Reagent was added to each well. The contents were mixed for 2 minutes on an orbital shaker to induce cell lysis. The plate was allowed to incubate at room temperature for 10 minutes to stabilize luminescent signal. Then the luminescence was recorded using EnVision Multi Label Reader.
as §8
Compound interactions were calculated by multiple drug effect analysis and performed by the median equation principle with CalcuSyn software from the mean affected fraction at each drug ratio concentration of each drug according to the methodology described by Chou and Talalay, that calculates a combination index (CI) with the following interpretation: • CI>1: antagonist effect, CI=1: additive effect and CI<1 synergistic effect.
as §6

[5] = test system: multiple myeloma cell lines; details: in vitro; cited from earlier work

Cn1c(CCCCCCC(=O)NO)nc2cc(N(CCCl)CCCl)ccc21 [EDO-S101]
pIC50 [1]: 6.18
DRI values at ED75 [2]: 1.368
DRI values at ED90 [2]: 1.482
pIC50 ([3]; FIG. 3 single drug test using different doses (at 1:2 serial dilutions)): 5.76
pIC50 ([3]; FIG. 3 single drug test with cisplatin control): 6.15
DRI values at ED75 [4]: 5.925
DRI values at ED90 [4]: 8.534
activity relative to bendamustin (times greater) [5]: 35-100

CC(C)(C)c1cc(NC(=O)Nc2ccc(-c3cn4c(n3)sc3cc(OCCN5CCOCC5)ccc34)cc2)no1 [quizartinib, reference compound]
pIC50 ([1]; read-out: IC50): 9.09
DRI values at ED75 [2]: 6.146
DRI values at ED90 [2]: 10.760
pIC50 ([3]; FIG. 3 single drug test using different doses (at 1:2 serial dilutions), read-out: IC50): 8.34
pIC50 ([3]; FIG. 3 single drug test with cisplatin control, read-out: IC50): 8.68
DRI values at ED75 [4]: 3.215
DRI values at ED90 [4]: 6.645
